From publication PMC6271756, “Synthesis of Caffeic Acid Amides Bearing 2,3,4,5-Tetra-hydrobenzo[b][1,4]dioxocine Moieties and Their Biological Evaluation as Antitumor Agents” (Molecules, 2014)

Key:
Hela = test: Cell proliferation assay (CCK8), Hela; type: cell-based; settings: Homo sapiens, cells incubated with compounds for 24 h
Description: (§1) CCK8 is much more convenient and helpful than MTT for analyzing cell proliferation, because it can be reduced to soluble formazan by dehydrogenase in mitochondria and has little toxicity to cells. Cell proliferation was determined using CCK8 dye (Beyotime Inst. Biotech., Nanjing, China) according to the manufacturer's instructions. Briefly, 1–5 × 10^3 cells per well were seeded on a 96-well plate, and grown at 37 °C for 12 h. Subsequently, cells were treated with all synthesized compounds at increasing concentrations in the presence of 10% FBS for 24 h. After addition of 10 μL CCK8 dyeto each well, cells were incubated at 37 °C for 2 h and plates were read on a Victor-V multilabel counter (Perkin-Elmer, Männedorf, Switzerland) using the default […]. Percent inhibition or IC50 values of compounds were calculated by comparison with DMSO-treated control wells.

A431 = test: Cell proliferation assay (CCK8), A431; type: cell-based; settings: Homo sapiens, A-431, cells incubated with compounds for 24 h
Description: as §1

HepG2 = test: Cell proliferation assay (CCK8), HepG2; type: cell-based; settings: for IC50: Homo sapiens, HepG2, cells incubated with compounds for 24 h, CCK8
Description: as §1

EGFR = molecular target: T1, EGFR (Homo sapiens, UniProt P00533); test: EGFR kinase autophosphorylation assay (DELFIA/Time Resolved Fluorometry); type: biochemical; settings: enzyme incubated with compounds for 70 min
T1 construct: EGFR cytoplasmic domain (EGFR-CD, amino acids 645–1186); (His)6 (N); made in house; host or cells: Sf-9 insect cells (baculovirus)
T1 sequence (P00533 669-1210): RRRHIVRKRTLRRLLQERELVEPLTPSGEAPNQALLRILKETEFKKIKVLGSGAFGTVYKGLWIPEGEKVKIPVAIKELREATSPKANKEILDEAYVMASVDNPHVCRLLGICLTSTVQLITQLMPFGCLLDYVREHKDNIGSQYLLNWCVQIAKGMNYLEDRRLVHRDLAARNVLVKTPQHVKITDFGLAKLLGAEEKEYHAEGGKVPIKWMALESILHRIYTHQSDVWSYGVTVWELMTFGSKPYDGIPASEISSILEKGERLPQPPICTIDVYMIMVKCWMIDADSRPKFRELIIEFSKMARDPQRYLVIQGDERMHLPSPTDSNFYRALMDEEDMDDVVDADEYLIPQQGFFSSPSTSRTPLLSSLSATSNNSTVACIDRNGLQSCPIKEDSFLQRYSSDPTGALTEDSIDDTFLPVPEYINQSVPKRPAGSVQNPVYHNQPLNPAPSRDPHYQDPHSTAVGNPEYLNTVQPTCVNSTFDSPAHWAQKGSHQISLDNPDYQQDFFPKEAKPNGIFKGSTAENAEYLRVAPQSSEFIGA
Description: A sequence that encodes (His)6 was located at the 5' upstream to the EGFR sequences. Sf-9 cells were infected for 3 days for protein expression. Sf-9 cell pellets were solubilized at 0 °C in a buffer at pH 7.4 containing 50 mM HEPES, 10 mM NaCl, 1% Triton, 10 μM ammonium molybdate, 100 μM sodium vanadate, 10 μg/mL aprotinin, 10 μg/mL leupeptin, 10 μg/mL pepstatin, and 16 μg/mL benzamidine HCl for 20 min followed by 20 min centrifugation. Crude extract supernatant was passed through an equilibrated Ni-NTA superflow packed column and washed with 10 mM and then 100 mM imidazole to remove nonspecifically bound material. Histidine tagged proteins were eluted with 250 and 500 mM imidazole and dialyzed against 50 mM NaCl, 20 mM HEPES, 10% glycerol, and 1 μg/mL each of aprotinin, leupeptin, and pepstatin for 2 h. The entire purification procedure was performed at 4 °C or on ice.
EGFR kinase assays was set up to assess the level of autophosphorylation based on DELFIA/Time Resolved Fluorometry. […] In each well, 10 μL compound was incubated with 10 μL (5 ng for EGFR) recombinant enzyme (1:80 dilution in 100 mM HEPES) for 10 min at room temperature. Then, 10 μL of 5× buffer (containing 20 mM HEPES, 2 mM MnCl2, 100 μM Na3VO4, and 1 mM DTT) and 20 μL of 0.1 mM ATP-50 mM MgCl2 were added for 1 h. Positive and negative controls were included in each plate by incubation of enzyme with or without ATP-MgCl2.
At the end of incubation, liquid was aspirated, and plates were washed three times with wash buffer. A 75 μL (400 ng) sample of europium labeled anti-phosphotyrosine antibody was added to each well for another 1 h of incubation. After washing, enhancement solution was added and the signal was detected by Victor (Wallac Inc., Männedorf, Switzerland) with excitation at 340 nm and emission at 615 nm. The percentage of autophosphorylation inhibition by the compounds was calculated using the following equation: 100% − [[…]] (1)
The IC50 was obtained from curves of percentage inhibition with eight concentrations of compound.

HepG2 cell = test: Apoptosis assay by flow cytometry (AnnexinV-FITC/PI); type: cell-based
Description: Approximately 10^5 cells/well were plated in a 24 well plate and allowed to adhere. After 24 h, the medium was replaced with fresh culture medium containing compounds D9 at final concentrations of 4, 6, 8 μM. Nontreated wells received an equivalent volume of ethanol (<0.1%). They were trypsinized, washed in PBS and centrifuged at 2,000 rpm for 5 min. The pellet was then resuspended in 500 μL of staining solution (containing 5 μL AnnexinV-FITC and 5 μL PI in Binding Buffer), mixed gently and incubated for 15 min at room temperature (15–25 °C) in dark. The sample were then read in FACScalibur flow cytometer (BD Company, New Jersey, USA) at 488 nm excitation.

HepG2 cell migration = test: Cell migration assay (Trans well); type: cell-based; settings: 0.06, 0.08, 0.1 μM, 24 h
Description: A cell migration assay was conducted as described previously (Qian et al.), with a slight modification. In brief, the cells were serum-starved overnight, and the transwells were coated with […] (ECL) cell attachment matrix (Upstate Biotechnology, Lake Placid, NY, USA) at 20 μg/mL. The top chambers of transwells were loaded with 0.2 mL of cells (4 × 10^5 cells/mL) in serum-free media, and the bottom chambers were loaded with 0.6 mL of MEM media containing 0.5% FBS. The cells were incubated in the transwells at 37 °C in 5% CO2 for 24 h. A microplate reader was used to measure the optical density of the eluted solutions in order to determine their migration values. Mean values were obtained from three individual experiments.

Row | IC50 (Hela) [µM] | IC50 (A431) [µM] | IC50 (HepG2) [µM] | melting point [°C] | IC50 (EGFR) [µM] | Structure (SMILES) | percentage of cell apoptosis (HepG2 cell; HepG2, 4 μM) [%] | percentage of cell apoptosis (HepG2 cell; HepG2, 6 μM) [%] | percentage of cell apoptosis (HepG2 cell; HepG2, 8 μM) [%] | amount of migrating HepG2 cells vs control (HepG2 cell migration) | effect on HepG2 cell survival ratios (CCK8 assay) (HepG2; concentrations lower than 0.1 μM)
1 | 105 | 41 | 56 |  |  | O=C(O)/C=C/c1ccc2c(c1)OCCCCO2 [C, (E)-3-(2,3,4,5-tetrahydrobenzo[b][1,4]dioxocin-8-yl)acrylic acid] |  |  |  |  | 
2 | 544 | 93.5 | 225 |  |  | O=C(O)/C=C/c1ccc(O)c(O)c1 [Caffeic acid] |  |  |  |  | 
3 | 16.7 | 18.9 | 4.94 | 127 to 128 | 8.97 | O=C(/C=C/c1ccc2c(c1)OCCCCO2)Nc1ccccc1Cl [Compound D11, (E)-N-(2-chlorophenyl)-3-(2,3,4,5-tetrahydrobenzo[b][1,4]dioxocin-8-yl)acrylamide] |  |  |  |  | 
4 | 10.8 | 14.2 | 6.28 | 112 to 113 | 12 | Cc1cccc(NC(=O)/C=C/c2ccc3c(c2)OCCCCO3)c1 [Compound D12, (E)-3-(2,3,4,5-tetrahydrobenzo[b][1,4]dioxocin-8-yl)-N-m-tolylacrylamide] |  |  |  |  | 
5 | 9.04 | 7.96 | 2.38 | 107 to 108 | 3.52 | O=C(/C=C/c1ccc2c(c1)OCCCCO2)Nc1ccc(Br)cc1 [Compound D16, (E)-N-(4-bromophenyl)-3-(2,3,4,5-tetrahydrobenzo[b][1,4]dioxocin-8-yl)acrylamide] |  |  |  |  | 
6 | 19.5 | 21.6 | 7.9 | 116 to 117 |  | O=C(/C=C/c1ccc2c(c1)OCCCCO2)Nc1cccc(F)c1 [Compound D17, (E)-N-(3-fluorophenyl)-3-(2,3,4,5-tetrahydrobenzo[b][1,4]dioxocin-8-yl)acrylamide] |  |  |  |  | 

Continued, compound first:

Row | Structure (SMILES) | IC50 (Hela) [µM] | IC50 (A431) [µM] | IC50 (HepG2) [µM] | melting point [°C] | IC50 (EGFR) [µM] | percentage of cell apoptosis (HepG2 cell; HepG2, 4 μM) [%] | percentage of cell apoptosis (HepG2 cell; HepG2, 6 μM) [%] | percentage of cell apoptosis (HepG2 cell; HepG2, 8 μM) [%] | amount of migrating HepG2 cells vs control (HepG2 cell migration) | effect on HepG2 cell survival ratios (CCK8 assay) (HepG2; concentrations lower than 0.1 μM)
7 | O=C(/C=C/c1ccc2c(c1)OCCCCO2)Nc1ccc([N+](=O)[O-])cc1 [Compound D1, (E)-N-(4-nitrophenyl)-3-(2,3,4,5-tetrahydrobenzo[b][1,4]dioxocin-8-yl)acrylamide] | 13.6 | 16.6 | 3.47 | 125 to 126 | 7.25 |  |  |  |  | 
8 | O=C(/C=C/c1ccc2c(c1)OCCCCO2)Nc1ccccc1[N+](=O)[O-] [Compound D2, (E)-N-(2-nitrophenyl)-3-(2,3,4,5-tetrahydrobenzo[b][1,4]dioxocin-8-yl)acrylamide] | 28.2 | 24.7 | 9.4 | 119 to 120 |  |  |  |  |  | 
9 | COc1ccc(NC(=O)/C=C/c2ccc3c(c2)OCCCCO3)cc1OC [Compound D3, (E)-N-(3,4-dimethoxyphenyl)-3-(2,3,4,5-tetrahydrobenzo[b][1,4]dioxocin-8-yl)acrylamide] | 19.6 | 8.96 | 10.2 | 171 to 172 |  |  |  |  |  | 
10 | COc1cc(NC(=O)/C=C/c2ccc3c(c2)OCCCCO3)cc(OC)c1 [Compound D4, (E)-N-(3,5-dimethoxyphenyl)-3-(2,3,4,5–tetrahydrobenzo[b][1,4]dioxocin-8-yl)acrylamide] | 23.7 | 10 | 11.1 | 115 to 116 |  |  |  |  |  | 
11 | COc1ccc(OC)c(NC(=O)/C=C/c2ccc3c(c2)OCCCCO3)c1 [Compound D5, (E)-N-(2,5-dimethoxyphenyl)-3-(2,3,4,5-tetrahydrobenzo[b][1,4]dioxocin-8-yl)acrylamide] | 21.4 | 9.31 | 10.5 | 110 to 111 |  |  |  |  |  | 
12 | COc1cc(NC(=O)/C=C/c2ccc3c(c2)OCCCCO3)cc(OC)c1OC [Compound D6, (E)-3-(2,3,4,5-tetrahydrobenzo[b][1,4]dioxocin-8-yl)-N-(3,4,5-trimethoxyphenyl)acrylamide] | 25.7 | 11.7 | 13.2 | 145 to 146 |  |  |  |  |  | 
13 | COc1cccc(NC(=O)/C=C/c2ccc3c(c2)OCCCCO3)c1 [Compound D7, (E)-N-(3-methoxyphenyl)-3-(2,3,4,5-tetrahydrobenzo[b][1,4]dioxocin-8-yl)acrylamide] | 8.71 | 12.6 | 3.16 | 104 to 105 | 6.78 |  |  |  |  | 
14 | COc1ccc(NC(=O)/C=C/c2ccc3c(c2)OCCCCO3)cc1 [Compound D8, (E)-N-(4-methoxyphenyl)-3-(2,3,4,5-tetrahydrobenzo[b][1,4]dioxocin-8-yl)acrylamide] | 7.04 | 7.42 | 0.95 | 112 to 113 | 0.85 |  |  |  |  | 
15 | CCOc1ccc(NC(=O)/C=C/c2ccc3c(c2)OCCCCO3)cc1 [Compound D9, (E)-N-(4-ethoxyphenyl)-3-(2,3,4,5-tetrahydrobenzo[b][1,4]dioxocin-8-yl)acrylamide] | 6.75 | 7.03 | 0.79 | 137 to 139 | 0.36 | 17.99 | 26.83 | 41.1 | less than control group | no effect
16 | O=C(/C=C/c1ccc2c(c1)OCCCCO2)Nc1cccc(Cl)c1 [Compound D10, (E)-N-(3-chlorophenyl)-3-(2,3,4,5-tetrahydrobenzo[b][1,4]dioxocin-8-yl)acrylamide] | 18.5 | 20 | 6.87 | 109 to 110 | 12.4 |  |  |  |  | 
17 | Cc1ccc(Cl)cc1NC(=O)/C=C/c1ccc2c(c1)OCCCCO2 [Compound D13, (E)-N-(5-chloro-2-methylphenyl)-3-(2,3,4,5-tetrahydrobenzo[b][1,4]dioxocin-8-yl)acrylamide] | 24.3 | 14.1 | 15.2 | 107 to 108 |  |  |  |  |  | 
18 | O=C(/C=C/c1ccc2c(c1)OCCCCO2)Nc1ccc(Br)cc1F [Compound D14, (E)-N-(4-bromo-2-fluorophenyl)-3-(2,3,4,5-tetrahydrobenzo[b][1,4]dioxocin-8-yl)acrylamide] | 30.8 | 22.6 | 9.03 | 110 to 111 |  |  |  |  |  | 
19 | O=C(/C=C/c1ccc2c(c1)OCCCCO2)NCc1ccccc1F [Compound D15, (E)-N-(2-fluorobenzyl)-3-(2,3,4,5-tetrahydrobenzo[b][1,4]dioxocin-8-yl)acrylamide] | 5.15 | 17.8 | 1.48 | 86 to 87 | 2.18 |  |  |  |  | 
20 | C#Cc1cccc(Nc2ncnc3cc(OCCOC)c(OCCOC)cc23)c1 [Erlotinib, reference compound] |  | 0.04 | 0.08 |  |  |  |  |  |  | 
